Reference: US5185377A, “Diphenyl compounds which inhibit arachidonic acid metabolism, and their use in pharmaceutical compositions” (Ciba-Geigy Corporation, priority 1990, dated 1993)
pEC50, pIC50: −log10 of the molar value. Like-named read-outs stand apart in the source and are kept apart here.

Experiments:
15-lipoxygenase = target: T1, 15-lipoxygenase (Oryctolagus cuniculus, UniProt P12530); test: Inhibition of the activity of 15-lipoxygenase from rabbit reticulocytes; assay type: biochemical
T1 construct: The lipoxygenase from rabbit reticulocytes is obtained in an electrophoretically and immunologically pure form; from tissue; host or cells: rabbit reticulocytes
T1 sequence (P12530 1-663): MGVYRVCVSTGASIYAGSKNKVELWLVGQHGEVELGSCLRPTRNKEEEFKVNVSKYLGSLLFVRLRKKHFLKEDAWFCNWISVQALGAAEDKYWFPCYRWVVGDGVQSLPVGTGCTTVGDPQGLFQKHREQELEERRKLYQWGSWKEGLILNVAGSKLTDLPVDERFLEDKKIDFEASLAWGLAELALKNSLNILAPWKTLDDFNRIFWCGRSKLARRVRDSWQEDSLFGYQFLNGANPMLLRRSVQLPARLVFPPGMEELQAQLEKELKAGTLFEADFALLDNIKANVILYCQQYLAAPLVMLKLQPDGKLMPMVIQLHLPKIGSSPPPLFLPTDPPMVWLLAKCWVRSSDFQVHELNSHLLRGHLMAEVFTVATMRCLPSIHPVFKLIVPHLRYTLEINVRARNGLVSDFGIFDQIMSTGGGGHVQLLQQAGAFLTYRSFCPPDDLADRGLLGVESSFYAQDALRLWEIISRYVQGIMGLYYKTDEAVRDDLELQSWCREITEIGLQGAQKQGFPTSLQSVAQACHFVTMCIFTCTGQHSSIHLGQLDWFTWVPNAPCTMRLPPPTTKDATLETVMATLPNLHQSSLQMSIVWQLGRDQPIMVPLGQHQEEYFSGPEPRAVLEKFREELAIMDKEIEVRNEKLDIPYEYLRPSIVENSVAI
Experimental: The lipoxygenase from rabbit reticulocytes is obtained in an electrophoretically and immunologically pure form by the method described in the literature [S. M. Rapoport et al., Eur. J. Biochem. 96, 545 (1979]. The lipoxygenase activity is determined at 25° C. via amperometric measurement of the O2 consumption by means of a Clark electrode in the following system: 0.1 M potassium phosphate pH 7.4 containing 0.2% of sodium cholate and 0.53 mM linoleic acid. The enzyme concentration in the measurement bath is 25 nM. The substances to be tested are added as a solution in methylglycol (freshly distilled). […] The enzyme reaction is started by addition of sodium cholate and linoleic acid. The titration curve of the inhibition and from this the concentration needed for 50% inhibition are determined by varying the active ingredient concentration.

prostaglandin H synthase = target: T2, prostaglandin H synthase (Ovis aries, UniProt P05979); test: Inhibition of the activity of prostaglandin H synthase from sheep seminal vesicles; assay type: biochemical
T2 construct: H synthase from sheep seminal vesicles is obtained by the method described in the literature; from tissue; host or cells: sheep seminal vesicles
T2 sequence (P05979 25-600): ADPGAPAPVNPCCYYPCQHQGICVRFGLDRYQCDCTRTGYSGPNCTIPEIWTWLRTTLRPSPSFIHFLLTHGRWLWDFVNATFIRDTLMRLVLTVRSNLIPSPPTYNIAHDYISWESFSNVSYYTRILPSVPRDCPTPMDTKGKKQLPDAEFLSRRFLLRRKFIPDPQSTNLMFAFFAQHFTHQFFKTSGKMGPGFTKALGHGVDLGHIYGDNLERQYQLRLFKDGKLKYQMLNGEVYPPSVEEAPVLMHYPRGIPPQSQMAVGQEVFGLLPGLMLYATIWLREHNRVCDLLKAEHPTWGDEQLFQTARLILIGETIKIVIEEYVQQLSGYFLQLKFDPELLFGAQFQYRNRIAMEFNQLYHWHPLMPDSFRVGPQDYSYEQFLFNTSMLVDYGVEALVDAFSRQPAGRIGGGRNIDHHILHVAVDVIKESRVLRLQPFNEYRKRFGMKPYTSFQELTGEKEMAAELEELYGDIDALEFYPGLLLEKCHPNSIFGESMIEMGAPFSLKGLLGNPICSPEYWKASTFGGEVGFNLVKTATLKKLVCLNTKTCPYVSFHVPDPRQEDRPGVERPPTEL
Experimental: Prostaglanding H synthase from sheep seminal vesicles is obtained by the method described in the literature by Van der Oudaraa, F. J. G.; Buytenhek, M.; Methods Enzymol. 86, 60 (1982).
The enzyme activity is determined at 25° C. by polargraphic measurement of the oxygen consumption with a Clark electrode.
The measurement batch consists of […] ml^-1 of prostaglandin H synthase in 0.1 M Tris-HCl buffer pH=8.0, 5 mM tryptophan, 1 μM haemin and 0.124 mM arachidonic acid. The substances to be tested are dissolved in methylglycol and incubated with the enzyme in the absence of arachidonic acid for 10 minutes at 25° C. The enzyme reaction is started with arachidonic acid.
The titration curve of the inhibition and from this the concentration needed for 50% inhibition are determined by varying the active ingredient concentration.

[1] = system: isolated lung parenchyma strips; test: Arachidonic acid-induced contraction of isolated lung parenchyma strips; assay type: cell-based, guinea-pig; conditions: for inhibition at 50 µM: 5×10^-5 M
Experimental: (§1) Testing of antiasthmatic active qualities of triclosan and fenticlor in vitro is carried out on isolated tracheal spirals and lung parenchyma strips of adult guinea-pigs (250-500 g) of both sexes. The tracheal spirals are prepared by the method described by Constantine [J. W. Constantine et al., J. Pharm. Pharmacol. 17, 384 (1965)]. Particular emphasis is placed on complete removal of the surrounding connective tissue and on maintaining the integrity of the epithelium [N. A. Flavahan et al., J. Appl. Physiol. 58, 834 (1985)].
(§2) The lung parenchyma strip is prepared in accordance with the method described by Del Monte [L. Del Monte et a., Naunym-Schmiedebergs Arch. Pharmacol., 338, 417 (1988)]. The contraction of the isolated organs is determined as isotonic measurement of the path under standardised conditions [J. Slapke et al., Biomed. Biochim. Acta 42, 1309 (1983)] in a multiple organ bath.
(§3) A modified Krebs-Henseleit solution (pH=7.4) of the following composition is used for the studies (m×mol 1^-1): NaCl 134.8, KCl 5.9, Tris 10.02, CaCl2 1.82, MgCl2 1.145, glucose 1.11. Air is used for gassing. The bath temperature is 37° C. for the lung parenchyma strips and 35° C. for the tracheal spirals. Conditioning of the preparations is performed several times with 5×10^-4 M acetylcholine to obtain the standardisation value, this substance subsequently being flushed out. In all studies, the contractions are induced by addition of arachidonic acid to the organ bath in increasing concentrations and are measured cumulatively. All the measurements are made in the present of 5 μM indomethacin.

[2] = system: isolated tracheal spirals; test: Arachidonic acid-induced contraction of isolated tracheal spirals; assay type: cell-based, guinea-pig; conditions: Cavia porcellus, average, 35° C., 5 μM indomethacin present, read-out: ED50 (concentration-related contraction)
Experimental: as §1, §2
as §3, with “Conditioning of the preparations is performed several times with 5×10^-4 M acetylcholine to obtain the standardisation value, this substance subsequently being flushed out.” left out, “All the measurements are made in the present of 5 μM indomethacin.” left out

[3] = literature statement; G. B. Kasting et al. cited for the non-steroidal drugs; cited from earlier work
[4] = system: ovalbumin-induced bronchoconstriction; test: Ovalbumin-induced bronchoconstriction in the ovalbumin-sensitised guinea-pig; assay type: in vivo
Experimental: Guinea-pigs are sensitised i.p. with 10 μg of ovalbumin and 100 mg of aluminium hydroxide in 0.5 ml of isotonic saline solution by the method of Anderson [P. Anderson, Brit. J. Pharmacol. 77, 301 (1982)]. After 14 days, the conscious animals are given a booster by inhalation of a 0.1% strength atomised ovalbumin solution. Only animals with a positive reaction are used for comparison from the fourth day after the booster. Guinea-pigs with a body weight of 450-550 g are were anaesthetised with 1.3 g/kg of ethylurethane i.p. Thereafter, a cannula is connected to the trachea. The animals are relaxed with 0.2 mg/kg pancuronium bromide i.v. and respirated in a tank respirator (f=20/min, p.=3 pPa, I:E=1:1). The animals breath in air from the room by the tracheal cannula led to the outside. The tidal volume VT is measured pneumota- chographically. 1 mg/kg of ovalbumin in 300 μl of water is instilled intratracheally to induce the spasm [G. Becher et al., Z. Erkrankg., Arm.-org. 166, 223 (1986)].
Statistical analysis of the results is carried out with the parameter-free U-test according to Mann and Whitney, p.≤0.05.

[5] = system: arachidonic acid-induced bronchoconstriction; test: Arachidonic acid-induced bronchoconstriction in the guinea-pig; assay type: in vivo
Experimental: A bronchospasm is induced in non-sensitised guinea-pigs in the same experimental design as in Example 2 by intratracheal instillation of 2 mg/kg of Na arachidonate solution in phosphate buffer pH=7.4 [G. Becher et al., Z. Erkrankg. Atm.-org. 171, 85 (1988)].

[6] = Cavia porcellus, 5 μM indomethacin
[7] = 100 mg/kg p.o. 2 hours before, ovalbumin 1 mg/kg intratracheally
[8] = 100 mg/kg p.o. 2 hours before, Na arachidonate 2 mg/kg intratracheally

Row | SMILES | pIC50 (15-lipoxygenase) | pIC50 (prostaglandin H synthase) | also measured
1 | Oc1c(Cl)cc(Cl)c(O)c1Cc1c(O)c(Cl)cc(Cl)c1O [2,2'6,6'-Tetrahydroxy-3,3',5,5'-tetrachloro-diphenylmethane] | 5.44 | 4.77 | 
2 | Oc1c(Cl)cc(Cl)c(Cl)c1Cc1c(O)c(Cl)cc(Cl)c1Cl [2,2'-Dihydroxy-3,3',5,5',6,6'-hexachloro-diphenylmethane] | 5.46 | 4.77 | 
3 | Oc1c(Br)cc(Br)cc1Cc1cc(Br)cc(Br)c1O [2,2'-Dihydroxy-3,3',5,5'-tetrabromo-diphenylmethane] | 5.55 | 4.35 | 
4 | Oc1c(Cl)cc(Cl)cc1Cc1cc(Cl)cc(Cl)c1O [2,2'-Dihydroxy-3,3',5,5'-tetrachloro-diphenylmethane] |  |  | pIC50 (15-lipoxygenase; 25° C., pH 7.4, 0.53 mM linoleic acid, enzyme 25 nM, read-out: 15-LOX IC50): 5.02; pIC50 (prostaglandin H synthase; 25° C., pH=8.0, 0.124 mM arachidonic acid, 10 minutes preincubation, read-out: PG H synthase IC50): 4.22
5 | Oc1c(Cl)cc(Br)cc1Cc1cc(Br)cc(Cl)c1O [2,2'-Dihydroxy-3,3'-dichloro-5,5'-dibromo-diphenylmethane] | 5.42 | 4.55 | 
6 | Cc1cc(Cc2ccccc2)cc(Cl)c1O [2-Chloro-6-methyl-4-benzylphenol] | 4.55 | 4.46 | 
7 | Oc1c(Br)cc(Cc2cc(Br)c(O)c(Br)c2)cc1Br [4,4'-Dihydroxy-3,3',5,5'-tetrabromo-diphenylmethane] | 5.30 | 4.77 | 
8 | Oc1c(Cl)cc(Cc2cc(Cl)c(O)c(Br)c2)cc1Br [4,4'-Dihydroxy-3,3'-dibromo-5,5'-dichloro-diphenylmethane] | 4.98 | 3.74 | 
9 | Cc1cc(Cl)cc(Cc2ccccc2)c1O [4-Chloro-2-methyl-6-benzylphenol] | 5.60 | 4.52 | 
10 | CCCCC/C=C\C/C=C\C/C=C\C/C=C\CCCC(=O)O [Arachidonic acid, arachidonic acid] |  |  | pEC50 ([1]; Cavia porcellus, read-out: ED50 (concentration-related contraction)): 4.00; pEC50 [2]: 4.30
11 | NC1=NN(c2cccc(C(F)(F)F)c2)CC1 [BW 755 C] |  |  | inhibition at 50 µM [1, 6]: 50%
12 | Oc1ccc(Cl)cc1Cc1ccccc1 [chlorophene, 2-Benzyl-4-chlorophenol] | 5.70 | 4.40 | 
13 | O=C(O)Cc1ccccc1Nc1c(Cl)cccc1Cl [diclofenac] |  |  | skin penetration [3]: inadequate skin penetration
14 | Oc1ccc(Cl)cc1Sc1cc(Cl)ccc1O [fenticlor, 2,2'-dihydroxy-5,5'-dichloro-diphenyl sulfide] | 5.85 | 4.81 | pIC50 ([1]; Cavia porcellus, read-out: ID50): 5.30; inhibition of the maximum bronchospasm [4, 7]: 60%; time to return to the starting volume (tidal volume) [4, 7]: 25 min; reduction of the allergic reaction (bronchoconstriction) ([4]; fenticlor 100 mg/kg p.o. 2 hours before, in comparison with controls, p≤0.05): reduced significantly; inhibition of the maximum bronchospasm [5, 8]: 16.5%; time to return to the starting volume (tidal volume) [5, 8]: 25 min; inhibition of the arachidonic acid-induced bronchoconstrictive reaction ([5]; fenticlor 100 mg/kg p.o. 2 hours before, U-test p≤0.05): inhibited significantly (parameter-free U-test according to Mann and Whitney, p≤0.05) from the fifth minute
15 | COc1ccc2c(c1)c(CC(=O)O)c(C)n2C(=O)c1ccc(Cl)cc1 [indomethacin] |  |  | skin penetration [3]: inadequate skin penetration
16 | CC(C(=O)O)c1cccc(C(=O)c2ccccc2)c1 (centres unmarked) [ketoprofen] |  |  | skin penetration [3]: inadequate skin penetration
17 | CN1CCC(=C2c3ccccc3CC(=O)c3sccc32)CC1 [ketotifen] |  |  | inhibition at 1 µM ([1]; Cavia porcellus, 10^-6 M, 5 μM indomethacin): 25%
18 | CC(Cc1ccc(O)c(O)c1)C(C)Cc1ccc(O)c(O)c1 (centres unmarked) [nordihydroguarjiaretic acid] |  |  | inhibition at 50 µM [1, 6]: 50%
19 | Oc1cc(Cl)ccc1Oc1ccc(Cl)cc1Cl [triclosan, 2,4,4'-trichloro-2'-hydroxy-diphenyl ether] | 5.62 | 4.64 | inhibition of the arachidonic acid-induced contraction ([1]; 10^-6 M triclosan, arachidonic acid 10^-7 -10^3 M (so in the source), 5 μM indomethacin): complete inhibition; relaxation on isolated lung parenchyma strips ([1]; triclosan concentrations of >10^-6 M): pronounced dose-related relaxation
